ChEMBL document CHEMBL1153043, “Synthesis and evaluation of 1-(benzo[b]thiophen-2-yl)ethanone analogues as novel anti-osteoporosis agents acting on BMP-2 promotor” (Bioorg Med Chem Lett, 2009)

Experiments:
[1] = Enhancement of BMP-2 expression in mouse MC3T3-E1 cells assessed as upregulation rate at 4 uM; assay type: functional, cell-based
Rattus norvegicus [2] = experiment: Antiosteoporotic activity in ovariectomized Sprague-Dawley rat assessed as trabecula resorption surface at 10 mg/kg/day, po for 90 days by bone histomorphometry; assay type: functional
Rattus norvegicus [3] = experiment: Antiosteoporotic activity in ovariectomized Sprague-Dawley rat assessed as trabecular bone volume at 20 mg/kg/day, po for 90 days by bone histomorphometry; assay type: functional, Trabecula
Rattus norvegicus [4] = experiment: Antiosteoporotic activity in ovariectomized Sprague-Dawley rat assessed as osteo cortex mineralization rate at 40 mg/kg/day, po for 90 days by bone histomorphometry; assay type: functional
Rattus norvegicus [5] = experiment: Antiosteoporotic activity in ovariectomized Sprague-Dawley rat assessed as average osteoid width at 10 mg/kg/day, po for 90 days by bone histomorphometry; assay type: functional
Rattus norvegicus [6] = experiment: Antiosteoporotic activity in ovariectomized Sprague-Dawley rat assessed as trabecula formation surface at 40 mg/kg/day, po for 90 days by bone histomorphometry; assay type: functional
Rattus norvegicus [7] = experiment: Antiosteoporotic activity in ovariectomized Sprague-Dawley rat assessed as average osteoid width at 20 mg/kg/day, po for 90 days by bone histomorphometry; assay type: functional
Rattus norvegicus [8] = experiment: Antiosteoporotic activity in ovariectomized Sprague-Dawley rat assessed as trabecula formation surface at 20 mg/kg/day, po for 90 days by bone histomorphometry; assay type: functional
Rattus norvegicus [9] = experiment: Antiosteoporotic activity in ovariectomized Sprague-Dawley rat assessed as mineral apposition rate at 10 mg/kg/day, po for 90 days by bone histomorphometry; assay type: functional
Rattus norvegicus [10] = experiment: Antiosteoporotic activity in ovariectomized Sprague-Dawley rat assessed as trabecular bone volume at 10 mg/kg/day, po for 90 days by bone histomorphometry; assay type: functional, Trabecula
Rattus norvegicus [11] = experiment: Antiosteoporotic activity in ovariectomized Sprague-Dawley rat assessed as trabecula resorption surface at 20 mg/kg/day, po for 90 days by bone histomorphometry; assay type: functional
Rattus norvegicus [12] = experiment: Antiosteoporotic activity in ovariectomized Sprague-Dawley rat assessed as trabecula formation surface at 10 mg/kg/day, po for 90 days by bone histomorphometry; assay type: functional
Rattus norvegicus [13] = experiment: Antiosteoporotic activity in ovariectomized Sprague-Dawley rat assessed as osteo cortex mineralization rate at 20 mg/kg/day, po for 90 days by bone histomorphometry; assay type: functional
Rattus norvegicus [14] = experiment: Antiosteoporotic activity in ovariectomized Sprague-Dawley rat assessed as trabecular bone volume at 40 mg/kg/day, po for 90 days by bone histomorphometry; assay type: functional, Trabecula
Rattus norvegicus [15] = experiment: Antiosteoporotic activity in ovariectomized Sprague-Dawley rat assessed as mineral apposition rate at 40 mg/kg/day, po for 90 days by bone histomorphometry; assay type: functional
Rattus norvegicus [16] = experiment: Antiosteoporotic activity in ovariectomized Sprague-Dawley rat assessed as mineral apposition rate at 20 mg/kg/day, po for 90 days by bone histomorphometry; assay type: functional
Rattus norvegicus [17] = experiment: Antiosteoporotic activity in ovariectomized Sprague-Dawley rat assessed as trabecula resorption surface at 40 mg/kg/day, po for 90 days by bone histomorphometry; assay type: functional
Rattus norvegicus [18] = experiment: Antiosteoporotic activity in ovariectomized Sprague-Dawley rat assessed as osteo cortex mineralization rate at 10 mg/kg/day, po for 90 days by bone histomorphometry; assay type: functional
Rattus norvegicus [19] = experiment: Antiosteoporotic activity in ovariectomized Sprague-Dawley rat assessed as average osteoid width at 40 mg/kg/day, po for 90 days by bone histomorphometry; assay type: functional
[20] = Enhancement of BMP-2 expression in mouse MC3T3-E1 cells assessed as upregulation rate at 0.4 uM; assay type: functional, cell-based
Rattus norvegicus [21] = experiment: Antiosteoporotic activity in ovariectomized Sprague-Dawley rat assessed as average osteoid width at 5 mg/kg/day, po for 90 days by bone histomorphometry; assay type: functional
Rattus norvegicus [22] = experiment: Antiosteoporotic activity in ovariectomized Sprague-Dawley rat assessed as trabecula resorption surface at 5 mg/kg/day, po for 90 days by bone histomorphometry; assay type: functional
Rattus norvegicus [23] = experiment: Antiosteoporotic activity in ovariectomized Sprague-Dawley rat assessed as osteo cortex mineralization rate at 5 mg/kg/day, po for 90 days by bone histomorphometry; assay type: functional
Rattus norvegicus [24] = experiment: Antiosteoporotic activity in ovariectomized Sprague-Dawley rat assessed as trabecula formation surface at 5 mg/kg/day, po for 90 days by bone histomorphometry; assay type: functional
Rattus norvegicus [25] = experiment: Antiosteoporotic activity in ovariectomized Sprague-Dawley rat assessed as mineral apposition rate at 5 mg/kg/day, po for 90 days by bone histomorphometry; assay type: functional
Rattus norvegicus [26] = experiment: Antiosteoporotic activity in ovariectomized Sprague-Dawley rat assessed as trabecular bone volume at 5 mg/kg/day, po for 90 days by bone histomorphometry; assay type: functional, Trabecula

SMILES: CC(=O)c1sc2ccc(C)c(Cl)c2c1C
- Activity [1]: 6.5%

SMILES: CC(=O)c1cc2ccccc2o1
- Activity (Rattus norvegicus [2]): 7.84%
- Activity (Rattus norvegicus [3]): 13.13%
- Activity (Rattus norvegicus [4]): 3.3 µm/day
- Activity (Rattus norvegicus [5]): 11.2 µm
- Activity (Rattus norvegicus [6]): 6.74%
- Activity (Rattus norvegicus [7]): 11.6 µm
- Activity (Rattus norvegicus [8]): 6.75%
- Activity (Rattus norvegicus [9]): 2.31 µm/day
- Activity (Rattus norvegicus [10]): 12.39%
- Activity (Rattus norvegicus [11]): 7.15%
- Activity (Rattus norvegicus [12]): 7.26%
- Activity (Rattus norvegicus [13]): 3.51 µm/day
- Activity (Rattus norvegicus [14]): 17.5%
- Activity (Rattus norvegicus [15]): 2.2 µm/day
- Activity (Rattus norvegicus [16]): 2.34 µm/day
- Activity (Rattus norvegicus [17]): 5.3%
- Activity [1]: 33.5%
- Activity (Rattus norvegicus [18]): 3.28 µm/day
- Activity (Rattus norvegicus [19]): 11 µm

SMILES: CC(=O)c1cc2c(Cl)c(C)ccc2s1
- Activity [1]: 39.8%

SMILES: CC[C@H](C)C(=O)O[C@H]1C[C@@H](C)C=C2C=C[C@H](C)[C@H](CC[C@@H]3C[C@@H](O)CC(=O)O3)[C@H]21
- Activity [20]: 20.9%

SMILES: CC(=O)c1cc2cc(C(F)(F)F)ccc2s1
- Activity [1]: 18.5%

SMILES: O=C(c1ccc(OCCN2CCCCC2)cc1)c1c(-c2ccc(O)cc2)sc2cc(O)ccc12 [RALOXIFENE]
- Activity (Rattus norvegicus [21]): 11.1 µm
- Activity (Rattus norvegicus [22]): 3.34%
- Activity (Rattus norvegicus [23]): 3.15 µm/day
- Activity (Rattus norvegicus [24]): 6.52%
- Activity (Rattus norvegicus [25]): 2.14 µm/day
- Activity (Rattus norvegicus [26]): 22.31%

SMILES: COC(=O)c1cc2ccccc2s1
- Activity [1]: 27.3%

SMILES: O=C(O)c1cc2ccccc2s1
- Activity [1]: 10.8%

SMILES: CC(=O)c1sc2ccccc2c1C
- Activity [1]: 28%

SMILES: NC(=O)c1cc2ccccc2s1
- Activity [1]: 11.2%
